Several values for one entry are separate records, joined by “and”; a condition that tells them apart may be missing. Equal values may be shown once. Inconclusive results and toxic doses are left out. How the source made its calls: active means survival T/C of 150% or more; inactive means T/C below 125% in these data.
Tested on: P388 leukemia ip, CD2F1 mice, survival T/C
Assay: NCI In Vivo Anticancer Drug Screen. Data for tumor model P388 Leukemia (intraperitoneal) in CD2F1 (CDF1) mice
Settings: endpoint: median survival time, higher = longer survival
Procedure, shortened: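 Mice carrying the transplanted tumor received test compound or vehicle. Survival was recorded in each group, and the value is the treated-group measurement divided by that of the vehicle-treated control group.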

[1] = dose: 50.0 mg/kg/injection, schedule: Q01DX005 (ip), vehicle: saline with Tween-80
[2] = dose: 100.0 mg/kg/injection, schedule: Q01DX005 (ip), vehicle: saline with Tween-80
[3] = dose: 200.0 mg/kg/injection, schedule: Q01DX005 (ip), vehicle: saline with Tween-80
[4] = dose: 50.0 mg/kg/injection, schedule: Q01DX009 (ip), vehicle: saline with Tween-80
[5] = dose: 50.0 mg/kg/injection, schedule: Q01DX005 (ip), vehicle: Klucel (hydroxypropylcellulose) (HPC)
[6] = dose: 100.0 mg/kg/injection, schedule: Q01DX005 (ip), vehicle: Klucel (hydroxypropylcellulose) (HPC)
[7] = dose: 200.0 mg/kg/injection, schedule: Q01DX005 (ip), vehicle: Klucel (hydroxypropylcellulose) (HPC)

Measured: T/C

Oc1cc2c(cc1C(c1ccc(F)cc1)n1ccnc1)OCO2 (stereo not given)
inactive: dose: 60.0 mg/kg/injection, schedule: Q01DX005 (ip), vehicle: Klucel (hydroxypropylcellulose) (HPC) 96 % of control | dose: 120.0 mg/kg/injection, schedule: Q01DX005 (ip), vehicle: Klucel (hydroxypropylcellulose) (HPC) 94 % of control | dose: 240.0 mg/kg/injection, schedule: Q01DX005 (ip), vehicle: Klucel (hydroxypropylcellulose) (HPC) 91 % of control

CN1OC(C#N)CC1c1ccccc1 (stereo not given)
inactive: dose: 12.5 mg/kg/injection, schedule: Q04DX002 (ip), vehicle: Klucel (hydroxypropylcellulose) (HPC) 100 % of control | dose: 25.0 mg/kg/injection, schedule: Q04DX002 (ip), vehicle: Klucel (hydroxypropylcellulose) (HPC) 99 % of control and 101 % of control | dose: 50.0 mg/kg/injection, schedule: Q04DX002 (ip), vehicle: Klucel (hydroxypropylcellulose) (HPC) 101 % of control and 112 % of control | dose: 87.5 mg/kg/injection, schedule: Q04DX002 (ip), vehicle: Klucel (hydroxypropylcellulose) (HPC) 101 % of control | dose: 100.0 mg/kg/injection, schedule: Q04DX002 (ip), vehicle: Klucel (hydroxypropylcellulose) (HPC) 103 % of control and 105 % of control and 121 % of control | dose: 350.0 mg/kg/injection, schedule: Q04DX002 (ip), vehicle: Klucel (hydroxypropylcellulose) (HPC) 100 % of control

C/C(=N\NC(=S)N1CCCC1)c1ncccn1
inactive: dose: 12.5 mg/kg/injection, schedule: Q04DX003 (ip), vehicle: Klucel (hydroxypropylcellulose) (HPC) 108 % of control | dose: 25.0 mg/kg/injection, schedule: Q04DX003 (ip), vehicle: Klucel (hydroxypropylcellulose) (HPC) 108 % of control | dose: 50.0 mg/kg/injection, schedule: Q04DX003 (ip), vehicle: Klucel (hydroxypropylcellulose) (HPC) 112 % of control

Oc1ccc(/C=N/N=C/c2ccc(O)c(O)c2)cc1O
inactive: [1] 121 % of control | [2] 106 % of control and 119 % of control | [3] 113 % of control | dose: 400.0 mg/kg/injection, schedule: Q01DX005 (ip), vehicle: saline with Tween-80 121 % of control

CC1=C/C(=N/OS(=O)(=O)c2ccc(C)cc2)CC(C)(C)C1
inactive: [1] 101 % of control | [2] 92 % of control | [3] 117 % of control

Cc1cccc(NCc2ccccn2)n1
inactive: [1] 103 % of control | [2] 103 % of control

Cn1ccccc1=NCC(N)=O
inactive: dose: 100.0 mg/kg/injection, schedule: Q04DX002 (ip), vehicle: saline 99 % of control | dose: 200.0 mg/kg/injection, schedule: Q04DX002 (ip), vehicle: saline 104 % of control | dose: 400.0 mg/kg/injection, schedule: Q04DX002 (ip), vehicle: saline 102 % of control

Cc1cc(C)nc(/C=C/c2ccccc2)c1
inactive: dose: 60.0 mg/kg/injection, schedule: Q01DX005 (ip), vehicle: saline with Tween-80 104 % of control | dose: 120.0 mg/kg/injection, schedule: Q01DX005 (ip), vehicle: saline with Tween-80 105 % of control | dose: 240.0 mg/kg/injection, schedule: Q01DX005 (ip), vehicle: saline with Tween-80 106 % of control

CC(C)(C)c1cc(C(=O)O)c(Br)c(C(=O)O)c1
inactive: dose: 50.0 mg/kg/injection, schedule: Q01DX009 (ip), vehicle: saline 97 % of control | dose: 100.0 mg/kg/injection, schedule: Q01DX009 (ip), vehicle: saline 102 % of control | dose: 200.0 mg/kg/injection, schedule: Q01DX009 (ip), vehicle: saline 100 % of control

O=C(Oc1ccc(C2c3cc(OC(=O)c4ccccc4)c(OC(=O)c4ccccc4)cc3CC3C(=O)OCC32)cc1OC(=O)c1ccccc1)c1ccccc1 (stereo not given)
inactive: [1] 88 % of control | [3] 86 % of control

Fc1ccc(CSC(=S)Nc2cccc(F)c2)cc1
inactive: dose: 50.0 mg/kg/injection, schedule: Q01DX009 (ip), vehicle: suspension in saline 90 % of control | dose: 100.0 mg/kg/injection, schedule: Q01DX009 (ip), vehicle: suspension in saline 103 % of control | dose: 200.0 mg/kg/injection, schedule: Q01DX009 (ip), vehicle: suspension in saline 107 % of control

COSc1ccc([N+](=O)[O-])cc1
inactive: dose: 100.0 mg/kg/injection, schedule: Q04DX003 (ip), vehicle: Klucel (hydroxypropylcellulose) (HPC) 108 % of control | dose: 200.0 mg/kg/injection, schedule: Q04DX003 (ip), vehicle: Klucel (hydroxypropylcellulose) (HPC) 102 % of control | dose: 400.0 mg/kg/injection, schedule: Q04DX003 (ip), vehicle: Klucel (hydroxypropylcellulose) (HPC) 99 % of control

C[n+]1c(-c2cccc3ccccc23)c2cc([N+](=O)[O-])ccc2c2ccccc21
inactive: dose: 4.0 mg/kg/injection, schedule: Q01DX009 (ip), vehicle: Klucel (hydroxypropylcellulose) (HPC) 114 % of control | dose: 8.0 mg/kg/injection, schedule: Q01DX009 (ip), vehicle: Klucel (hydroxypropylcellulose) (HPC) 115 % of control | dose: 8.0 mg/kg/injection, schedule: Q04DX003 (ip), vehicle: Klucel (hydroxypropylcellulose) (HPC) 98 % of control | dose: 16.0 mg/kg/injection, schedule: Q01DX009 (ip), vehicle: Klucel (hydroxypropylcellulose) (HPC) 119 % of control | dose: 16.0 mg/kg/injection, schedule: Q04DX003 (ip), vehicle: Klucel (hydroxypropylcellulose) (HPC) 108 % of control | dose: 32.0 mg/kg/injection, schedule: Q01DX009 (ip), vehicle: Klucel (hydroxypropylcellulose) (HPC) 114 % of control | dose: 32.0 mg/kg/injection, schedule: Q04DX003 (ip), vehicle: Klucel (hydroxypropylcellulose) (HPC) 114 % of control | dose: 64.0 mg/kg/injection, schedule: Q04DX003 (ip), vehicle: Klucel (hydroxypropylcellulose) (HPC) 106 % of control

O=C(CCCl)OCCCl
inactive: dose: 50.0 mg/kg/injection, schedule: Q01DX009 (ip), vehicle: saline sonified 95 % of control | dose: 100.0 mg/kg/injection, schedule: Q01DX009 (ip), vehicle: saline sonified 100 % of control | dose: 200.0 mg/kg/injection, schedule: Q01DX009 (ip), vehicle: saline sonified 90 % of control

CC1C(=O)OC(C)(C)C1(C)C (stereo not given)
inactive: [4] 101 % of control

COc1nc2cc3c(cc2n2cccc12)oc1ccccc13
inactive: dose: 25.0 mg/kg/injection, schedule: Q01DX005 (ip), vehicle: saline with Tween-80 95 % of control | [1] 96 % of control | [2] 102 % of control

C=C1OC(CC(C)C)=C(C(=O)OC(C)(C)C)C1C (stereo not given)
inactive: dose: 100.0 mg/kg/injection, schedule: Q01DX001 (ip), vehicle: saline with Tween-80 99 % of control | dose: 200.0 mg/kg/injection, schedule: Q01DX001 (ip), vehicle: saline with Tween-80 99 % of control | dose: 400.0 mg/kg/injection, schedule: Q01DX001 (ip), vehicle: saline with Tween-80 100 % of control

Cc1cc(S(=O)(=O)O)ccc1N=c1ccc2c(-c3ccccc3C(=O)O)c3ccc(Nc4ccccc4C)cc3oc-2c1
inactive: dose: 50.0 mg/kg/injection, schedule: Q01DX005 (ip), vehicle: saline 88 % of control | dose: 100.0 mg/kg/injection, schedule: Q01DX005 (ip), vehicle: saline 105 % of control | dose: 200.0 mg/kg/injection, schedule: Q01DX005 (ip), vehicle: saline 91 % of control

O=C(N=C(N=C(c1ccccc1)N1CCOCC1)c1ccccc1)c1ccccc1
inactive: [4] 106 % of control | dose: 100.0 mg/kg/injection, schedule: Q01DX009 (ip), vehicle: saline with Tween-80 102 % of control | dose: 200.0 mg/kg/injection, schedule: Q01DX009 (ip), vehicle: saline with Tween-80 103 % of control

CSC(=O)NC(=Nc1ccccc1)NC(=O)c1ccccc1
inactive: dose: 12.5 mg/kg/injection, schedule: Q01DX005 (ip), vehicle: Klucel (hydroxypropylcellulose) (HPC) 90 % of control | dose: 25.0 mg/kg/injection, schedule: Q01DX005 (ip), vehicle: Klucel (hydroxypropylcellulose) (HPC) 93 % of control | [5] 91 % of control | [6] 88 % of control | [7] 89 % of control and 91 % of control

CN(C)c1ccc(C2Sc3ccccc3S2)cc1
inactive: dose: 100.0 mg/kg/injection, schedule: Q01DX001 (ip), vehicle: Klucel (hydroxypropylcellulose) (HPC) 97 % of control | dose: 200.0 mg/kg/injection, schedule: Q01DX001 (ip), vehicle: Klucel (hydroxypropylcellulose) (HPC) 95 % of control | dose: 400.0 mg/kg/injection, schedule: Q01DX001 (ip), vehicle: Klucel (hydroxypropylcellulose) (HPC) 97 % of control

O=C(CSCC(=O)c1ccc([N+](=O)[O-])cc1)c1ccc([N+](=O)[O-])cc1
inactive: [1] 94 % of control | [2] 96 % of control | [3] 87 % of control

c1nc2c3c4c(sc3ncn2n1)CCCC4
inactive: [5] 98 % of control | [6] 106 % of control | [7] 91 % of control

Oc1c(Cl)cc(Cl)cc1C1Nc2ccccc2-n2cccc21 (stereo not given)
inactive: dose: 6.25 mg/kg/injection, schedule: Q01DX009 (ip), vehicle: saline with Tween-80 91 % of control | dose: 12.5 mg/kg/injection, schedule: Q01DX009 (ip), vehicle: saline with Tween-80 96 % of control | dose: 25.0 mg/kg/injection, schedule: Q01DX009 (ip), vehicle: saline with Tween-80 91 % of control

CCOc1cc2c(cc1OC)c[n+](C)c1c3cc(OC)c(OC)cc3ccc21
inactive: dose: 10.0 mg/kg/injection, schedule: Q01DX009 (ip), vehicle: water 122 % of control

Reference: PubChem BioAssay AID330 (DTP/NCI, 2004)
